{
  "source": "patent US20250127896A1",
  "about": "“CHIMERIC TIM4 RECEPTORS AND USES THEREOF” (CERO THERAPEUTICS HOLDINGS, INC., priority 2021, published 2025)",
  "key": {"Kuramochi cells [1]": {"test_system": "Kuramochi cells", "conditions": "1.56 or 25 μM Niraparib, 48 hours", "procedure": "(§1) FIG. 7A: Flow cytometry measurement of surface PtdSer. Kuramochi cells were treated with 1.56 or 25 μM Niraparib or with equivalent volume of DMSO (control). 48 hours later samples were trypsinized and stained using a Tim4-Fc followed by a fluorescently-labeled secondary antibody to the Tim4-Fc. FIG. 7B: Kuramochi cells pre-treated for ˜20 hours with 1.56 μM Niraparib were co-cultured with pCTX133 and Untransduced CD4 T cells from donor 32 at a 2:1 T cell: Kuramochi ratio and a final Niraparib concentration of 1.56 μM. […] All data were collected via IncuCyte.\n(§2) In ovarian tumors, poly (ADP-ribose) polymerase (PARP) inhibitors, such as Niraparib, are clinically approved drugs which target DNA damage response pathways. Responses are rarely complete, with relapse common after treatment. To induce Ptd-Ser exposure, BRCA-2 mutated Kuramochi cell line was treated with therapeutic doses of the PARP inhibitor Niraparib."}, "[2]": {"test_system": "A2780 ovarian cancer cells", "test": "Viability and phosphatidylserine exposure of A2780 cells treated with PARP inhibitors (annexin V)", "format": "cell-based, human", "procedure": "Viability (FIG. 31A) and phosphatidylserine (PS) exposure (FIG. 31B) of A2780 cells treated with niraparib or olaparib (both at 0.25 to 6 μM) at 96 hours.\n(§3) At day 0, media was exchanged and donor T cells from three subjects (FIG. 28) transduced with CER-1234, CER-1236, or control CER-1183 (FIG. 27A) were added at various effector:target ratios to A2780 cells treated with PARPi to assess chimeric Tim4 receptor-T cell activation, cytokine production, proliferation, and cytotoxic responses. Chimeric Tim4 receptor-T cells immunophenotyping and bulk supernatant analysis was performed on day 2 and day 5 following initiation of co-culture.\nPhosphatidylserine exposure on A2780 ovarian cancer cells upon treatment with the small molecule PARP inhibitors niraparib or olaparib was evaluated by annexin v staining to determine the appropriate drug dose. Phosphatidylserine targeting Tim-4 CER constructs designed to enhance cytotoxicity and target-dependent tumor cell fragment uptake were engineered. […] CER-1250 has the same intracellular signaling domains as CER1236 but has a mutated IgV domain with AAAA substitution to abrogate phosphatidylserine binding. Niraparib (0.5 μM) and olaparib (1.5 μM) were used to expose phosphatidylserine on the surface of A2780 cells for CER T cell recognition and cytotoxicity, T-cell activation, and cytokine responses were evaluated. Uptake of antigen by CER-1236 T cells was modeled with human papilloma virus E7 antigen-expressing squamous carcinoma (SCC152) TMEM30A phospholipid flippase knockout cells. […] E7 antigen presentation by CER-1236 T cells was assayed by surface expression of HLA-DR, a marker of T cell activation, on autologous HLA-A2-restricted E7 TCR T cells.\nThe induction of surface phosphatidylserine expression on A2780 ovarian cells treated with the PARP inhibitors olaparib and niraparib was measured by flow cytometry (FC) using annexin V."}, "Kuramochi cells [3]": {"test_system": "Kuramochi cells", "test": "Kuramochi co-culture with chimeric Tim4 receptor T cells and Niraparib (IncuCyte)", "format": "cell-based", "conditions": "Niraparib alone", "procedure": "as §1, §2"}, "A2780 cells": {"test_system": "A2780 cells", "conditions": "compared to untreated", "procedure": "FIG. 34B: At 120 hours, the ratio of cells remaining in treated samples compared to untreated A2780 samples was quantified using the incucyte data from FIG. 34A. FIG. 34C: Proliferation of CER T cells in co-culture assays.\nas §3\nCER T-cell cytotoxic function was evaluated using the Incucyte® live-cell analysis system in co-culture assays with A2780 cells. A2780 cells engineered to constitutively express mCherry were pretreated with 1.5 μM olaparib, 0.5 μM niraparib or no drug for 96 hours. CER T cells (expanded for 6 days after transduction) in T-cell optimizer media containing IL-2, IL-7, and IL-15 were co-cultured with A2780 cells at an effector:target (E:T) ratio of 1:2 in the presence of the same concentrations of olaparib or niraparib."}},
  "data": [
    {"smiles": "NC(=O)c1cccc2cn(-c3ccc([C@@H]4CCCNC4)cc3)nc12", "note": "[Niraparib]", "values": [
      {"measurement": "surface PtdSer (membrane phospholipid symmetry)", "setting": "Kuramochi cells [1]", "value": "elicits changes in membrane phospholipid symmetry, in a dose dependent manner"},
      {"measurement": "effective concentration that killed 25% cells (EC25)", "setting": "[2]; A2780 cells", "value": 500, "unit": "nM"},
      {"measurement": "phosphatidylserine exposure on viable A2780 cells", "setting": "[2]; subtherapeutic doses, 96 hours", "value": "induce phosphatidylserine exposure on viable A2780 cells"},
      {"measurement": "growth of Kuramochi cells", "setting": "Kuramochi cells [3]", "value": "effective in inhibiting growth of Kuramochi cells"},
      {"measurement": "A2780 cells eliminated, single agent", "setting": "A2780 cells", "value": 23, "unit": "%"}
    ]}
  ]
}
